Results taken from patent US20070060566A1, “Benzazepine derivatives as histamine h3 antagonists” (priority 2003, published 2007).

Each molecule was assayed against T1, human histamine H3 receptor (Homo sapiens, UniProt Q9Y5N1) (assay: Histamine H3 functional antagonist assay ([35S]GTPγS SPA on membranes)). Conditions: membranes of CHO K1 cells expressing human histamine H3; histamine 0.3 μM; read-out: antagonism (pKb) (converted).
T1 construct: expressed in transfected cells; host or cells: CHO K1 cells carrying the pSwitch regulatory plasmid, transfected with pGeneH3, induced with mifepristone; clone 3H3
T1 sequence (Q9Y5N1 whole entry): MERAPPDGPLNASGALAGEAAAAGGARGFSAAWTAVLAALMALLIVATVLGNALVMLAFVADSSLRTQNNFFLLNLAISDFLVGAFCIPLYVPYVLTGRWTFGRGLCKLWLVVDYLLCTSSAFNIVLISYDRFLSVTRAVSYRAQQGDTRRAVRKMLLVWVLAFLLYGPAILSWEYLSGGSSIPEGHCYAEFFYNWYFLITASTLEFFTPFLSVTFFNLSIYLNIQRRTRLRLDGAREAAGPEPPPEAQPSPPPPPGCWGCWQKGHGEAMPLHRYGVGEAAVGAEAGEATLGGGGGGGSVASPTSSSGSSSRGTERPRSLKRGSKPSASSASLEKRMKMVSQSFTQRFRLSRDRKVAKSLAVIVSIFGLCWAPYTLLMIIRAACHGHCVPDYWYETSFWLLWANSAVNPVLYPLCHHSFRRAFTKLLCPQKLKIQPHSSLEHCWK
Assay type: biochemical
Excerpt: A membrane preparation containing histamine H3 receptors may be prepared in accordance with the following procedures:
(i) Generation of Histamine H3 Cell Line
DNA encoding the human histamine H3 gene (Huvar, A. et al. (1999) Mol. Pharmacol. 55(6), 1101-1107) was cloned into a holding vector, pCDNA3.1 TOPO (InVitrogen) and its cDNA was isolated from this vector by restriction digestion of plasmid DNA with the enzymes BamH1 and Not-1 and ligated into the inducible expression vector pGene (InVitrogen) digested with the same enzymes. The GeneSwitch™ system (a system where in transgene expression is switched off in the absence of an inducer and switched on in the presence of an inducer) was performed as described in U.S. Pat. Nos. 5,364,791; 5,874,534; and 5,935,934. Ligated DNA was transformed into competent DH5α E. coli host bacterial cells and plated onto Luria Broth (LB) agar containing Zeocin™ (an antibiotic which allows the selection of cells expressing the sh ble gene which is present on pGene and pSwitch) at 50 μg ml^−1. Colonies containing the re-ligated plasmid were identified by restriction analysis. DNA for transfection into mammalian cells was prepared from 250 ml cultures of the host bacterium containing the pGeneH3 plasmid and isolated using a DNA preparation kit (Qiagen Midi-Prep) as per manufacturers guidelines (Qiagen).
CHO K1 cells previously transfected with the pSwitch regulatory plasmid (InVitrogen) were seeded at 2×10e6 cells per T75 flask in Complete Medium, containing Hams F12 (GIBCOBRL, Life Technologies) medium supplemented with 10% v/v dialysed foetal bovine serum, L-glutamine, and hygromycin (100 μg ml^−1), 24 hours prior to use. Plasmid DNA was transfected into the cells using Lipofectamine plus according to the manufacturers guidelines (InVitrogen). 48 hours post transfection cells were placed into complete medium supplemented with 500 μg ml^−1 Zeocin™.
10-14 days post selection 10 nM Mifepristone (InVitrogen), was added to the culture medium to induce the expression of the receptor. 18 hours post induction cells were detached from the flask using ethylenediamine tetra-acetic acid (EDTA; 1:5000; InVitrogen), following several washes with phosphate buffered saline pH 7.4 and resuspended in Sorting Medium containing Minimum Essential Medium (MEM), without phenol red, and supplemented with Earles salts and 3% Foetal Clone II (Hyclone). Approximately 1×10e7 cells were examined for receptor expression by staining with a rabbit polyclonal antibody, 4a, raised against the N-terminal domain of the histamine H3 receptor, incubated on ice for 60 minutes, followed by two washes in sorting medium. Receptor bound antibody was detected by incubation of the cells for 60 minutes on ice with a goat anti rabbit antibody, conjugated with Alexa 488 fluorescence marker (Molecular Probes). Following two further washes with Sorting Medium, cells were filtered through a 50 μm Filcon™ (BD Biosciences) and then analysed on a FACS Vantage SE Flow Cytometer fitted with an Automatic Cell Deposition Unit. Control cells were non-induced cells treated in a similar manner. Positively stained cells were sorted as single cells into 96-well plates, containing Complete Medium containing 500 μg ml^−1 Zeocin™ and allowed to expand before reanalysis for receptor expression via antibody and ligand binding studies. One clone, 3H3, was selected for membrane preparation.
(ii) Membrane Preparation from Cultured Cells
All steps of the protocol are carried out at 4° C. and with pre-cooled reagents. The cell pellet is resuspended in 10 volumes of buffer A2 containing 50 mM N-2-hydroxyethylpiperazine-N′-2-ethanesulfonic acid (HEPES) (pH 7.40) supplemented with 10e-4M leupeptin (acetyl-leucyl-leucyl-arginal; Sigma L2884), 25 μg/ml bacitracin (Sigma B0125), 1 mM ethylenediamine tetra-acetic acid (EDTA), 1 mM phenylmethylsulfonyl fluoride (PMSF) and 2×10e-6M pepstain A (Sigma). […]

Row | Kb [nM] | Compound
1 | < 0.316 | N#Cc1ccc(C(=O)Nc2ccc3c(c2)CCN(C2CCC2)CC3)cc1 [Example 2, 4-Cyano-N-(3-cyclobutyl-2,3,4,5-tetrahydro-1H-3-benzazepin-7-yl)benzamide]
2 | < 0.316 | Cc1ccc(C(=O)Nc2ccc3c(c2)CCN(C2CCC2)CC3)cn1 [Example 37, N-(3-Cyclobutyl-2,3,4,5-tetrahydro-1H-3-benzazepin-7-yl)-6-methylnicotinamide]
3 | < 0.316 | O=C(Nc1ccc2c(c1)CCN(C1CCC1)CC2)c1ccc(-n2cnnn2)cc1 [Example 33, N-(3-Cyclobutyl-2,3,4,5-tetrahydro-1H-3-benzazepin-7-yl)-4-(1H-tetrazol-1-yl)benzamide]
4 | < 0.316 | N#Cc1ccc(-c2ccc(C(=O)Nc3ccc4c(c3)CCN(C3CCC3)CC4)cn2)cc1 [Example 98, 6-(4-Cyanophenyl)-N-(3-cyclobutyl-2,3,4,5-tetrahydro-1H-3-benzazepin-7-yl)-3-pyridinecarboxamide]
5 | < 0.316 | O=C(Nc1ccc2c(c1)CCN(C1CCC1)CC2)N1CCCc2ccccc21 [Example 148, N-(3-Cyclobutyl-2,3,4,5-tetrahydro-1H-3-benzazepin-7-yl)-3,4-dihydro-1(2H)-quinolinecarboxamide]
6 | < 0.316 | N#Cc1ccc(-c2ccc(C(=O)Nc3ccc4c(c3)CCN(C3CCC3)CC4)cc2)cn1 [Example 34, 4-(6-Cyano-3-pyridinyl)-N-(3-cyclobutyl-2,3,4,5-tetrahydro-1H-3-benzazepin-7-yl)benzamide]
7 | < 0.316 | O=C(Nc1ccc2c(c1)CCN(C1CCC1)CC2)c1cnc(N2CCCCC2)cn1 [Example 113, N-(3-Cyclobutyl-2,3,4,5-tetrahydro-1H-3-benzazepin-7-yl)-5-(1-piperidinyl)-2-pyrazinecarboxamide]
8 | < 0.316 | O=C(Nc1ccc2c(c1)CCN(C1CCC1)CC2)c1ccc(-c2cncnc2)cc1 [Example 29, N-(3-Cyclobutyl-2,3,4,5-tetrahydro-1H-3-benzazepin-7-yl)-4-(5-pyrimidinyl)benzamide]
9 | < 0.316 | O=C(Nc1ccc2c(c1)CCN(C1CCC1)CC2)c1ccc(-c2ccccn2)cc1 [Example 8, N-(3-Cyclobutyl-2,3,4,5-tetrahydro-1H-3-benzazepin-7-yl)-4-(2-pyridinyl)benzamide]
10 | < 0.316 | O=C(Nc1ccc2c(c1)CCN(C1CCC1)CC2)c1ccc(N2CCOCC2)nc1 [Example 44, N-(3-Cyclobutyl-2,3,4,5-tetrahydro-1H-3-benzazepin-7-yl)-6-(4-morpholinyl)-3-pyridinecarboxamide]
11 | < 0.316 | O=C(Nc1ccc2c(c1)CCN(C1CCC1)CC2)c1ccc(N2CCNC2=O)cc1 [Example 88, N-(3-Cyclobutyl-2,3,4,5-tetrahydro-1H-3-benzazepin-7-yl)-4-(2-oxo-1-imidazolidinyl)benzamide]
